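GI50 marks 50% less growth. The concentration for full growth arrest is given as TGI.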
Columns and labels:
Assay in all cases: growth of human tumour cells (NCI), 384-well format
786-0 renal = tested on: 786-0 renal
A549 NSCLC = tested on: A549 NSCLC
ACHN renal = tested on: ACHN renal
BT-549 breast = tested on: BT-549 breast
CAKI-1 renal = tested on: CAKI-1 renal
CCRF-CEM leukemia = tested on: CCRF-CEM leukemia
COLO 205 colon = tested on: COLO 205 colon
EKVX NSCLC = tested on: EKVX NSCLC
HCC-2998 colon = tested on: HCC-2998 colon
HCT-15 colon = tested on: HCT-15 colon
HL-60(TB) leukemia = tested on: HL-60(TB) leukemia
HOP-62 NSCLC = tested on: HOP-62 NSCLC
HS 578T breast = tested on: HS 578T breast
HT29 colon = tested on: HT29 colon
K-562 leukemia = tested on: K-562 leukemia
LOX IMVI melanoma = tested on: LOX IMVI melanoma
M14 melanoma = tested on: M14 melanoma
MALME-3M melanoma = tested on: MALME-3M melanoma
MCF7 breast = tested on: MCF7 breast
MDA-MB-435 melanoma = tested on: MDA-MB-435 melanoma
MDA-MB-468 breast = tested on: MDA-MB-468 breast
MOLT-4 leukemia = tested on: MOLT-4 leukemia
NCI-H226 lung = tested on: NCI-H226 lung
NCI-H23 lung = tested on: NCI-H23 lung
NCI-H322M lung = tested on: NCI-H322M lung
NCI-H460 NSCLC = tested on: NCI-H460 NSCLC
NCI/ADR-RES ovarian = tested on: NCI/ADR-RES ovarian
OVCAR-3 ovarian = tested on: OVCAR-3 ovarian
OVCAR-4 ovarian = tested on: OVCAR-4 ovarian
OVCAR-8 ovarian = tested on: OVCAR-8 ovarian
PC-3 prostate = tested on: PC-3 prostate
RXF 393 renal = tested on: RXF 393 renal
SF-268 CNS = tested on: SF-268 CNS
SF-295 CNS = tested on: SF-295 CNS
SF-539 CNS = tested on: SF-539 CNS
SK-MEL-2 melanoma = tested on: SK-MEL-2 melanoma
SK-MEL-5 melanoma = tested on: SK-MEL-5 melanoma
SK-OV-3 ovarian = tested on: SK-OV-3 ovarian
SN12C renal = tested on: SN12C renal
SNB-19 CNS = tested on: SNB-19 CNS
SNB-75 CNS = tested on: SNB-75 CNS
SR leukemia = tested on: SR leukemia
SW-620 colon = tested on: SW-620 colon
T-47D breast = tested on: T-47D breast
U251 glioblastoma = tested on: U251 glioblastoma
UACC-62 melanoma = tested on: UACC-62 melanoma
UO-31 renal = tested on: UO-31 renal

[2H]c1nc(C)nc([2H])c1-c1cc(NC[C@@H](C)c2cccc3c(C(=O)NC)ccnc23)ncn1
GI50 ([…]-0 renal): > 100 µM | TGI (786-0 renal): > 100 µM | GI50 (A549 NSCLC): > 100 µM | TGI (A549 NSCLC): > 100 µM | GI50 (ACHN renal): > 100 µM | TGI (ACHN renal): > 100 µM | GI50 (BT-549 breast): > 100 µM | TGI (BT-549 breast): > 100 µM | GI50 (CAKI-1 renal): > 100 µM | TGI (CAKI-1 renal): > 100 µM | GI50 (CCRF-CEM leukemia): > 100 µM | TGI (CCRF-CEM leukemia): > 100 µM | GI50 (COLO 205 colon): > 100 µM | TGI (COLO 205 colon): > 100 µM | GI50 (EKVX NSCLC): > 100 µM | TGI (EKVX NSCLC): > 100 µM | GI50 (HCC-2998 colon): > 100 µM | TGI (HCC-2998 colon): > 100 µM | GI50 (HCT-15 colon): > 100 µM | TGI (HCT-15 colon): > 100 µM | GI50 (HL-60(TB) leukemia): 55.8 µM | TGI (HL-60(TB) leukemia): > 100 µM | GI50 (HOP-62 NSCLC): > 100 µM | TGI (HOP-62 NSCLC): > 100 µM | GI50 (HS 578T breast): > 100 µM | TGI (HS 578T breast): > 100 µM | GI50 (HT29 colon): > 100 µM | TGI (HT29 colon): > 100 µM | GI50 (K-562 leukemia): 48.1 µM | TGI (K-562 leukemia): > 100 µM | GI50 (LOX IMVI melanoma): > 100 µM | TGI (LOX IMVI melanoma): > 100 µM | GI50 (M14 melanoma): > 100 µM | TGI (M14 melanoma): > 100 µM | GI50 (MALME-3M melanoma): > 100 µM | TGI (MALME-3M melanoma): > 100 µM | GI50 (MCF7 breast): > 100 µM | TGI (MCF7 breast): > 100 µM | GI50 (MDA-MB-435 melanoma): > 72.5 µM | TGI (MDA-MB-435 melanoma): > 100 µM | GI50 (MDA-MB-468 breast): > 100 µM | TGI (MDA-MB-468 breast): > 100 µM | GI50 (MOLT-4 leukemia): > 85.7 µM | TGI (MOLT-4 leukemia): > 100 µM | GI50 (NCI-H226 lung): > 100 µM | TGI (NCI-H226 lung): > 100 µM | GI50 (NCI-H23 lung): > 100 µM | TGI (NCI-H23 lung): > 100 µM | GI50 (NCI-H322M lung): > 100 µM | TGI (NCI-H322M lung): > 100 µM | GI50 (NCI-H460 NSCLC): > 100 µM | TGI (NCI-H460 NSCLC): > 100 µM | GI50 (NCI/ADR-RES ovarian): > 100 µM | TGI (NCI/ADR-RES ovarian): > 100 µM | GI50 (OVCAR-3 ovarian): > 100 µM | TGI (OVCAR-3 ovarian): > 100 µM | GI50 (OVCAR-4 ovarian): > 100 µM | TGI (OVCAR-4 ovarian): > 100 µM | GI50 (OVCAR-8 ovarian): > 100 µM | TGI (OVCAR-8 ovarian): > 100 µM | GI50 (PC-3 prostate): > 100 µM | TGI (PC-3 prostate): > 100 µM | GI50 (RXF 393 renal): > 100 µM | TGI (RXF 393 renal): > 100 µM | GI50 (SF-268 CNS): > 100 µM | TGI (SF-268 CNS): > 100 µM | GI50 (SF-295 CNS): > 100 µM | TGI (SF-295 CNS): > 100 µM | GI50 (SF-539 CNS): > 100 µM | TGI (SF-539 CNS): > 100 µM | GI50 (SK-MEL-2 melanoma): > 100 µM | TGI (SK-MEL-2 melanoma): > 100 µM | GI50 (SK-MEL-5 melanoma): > 100 µM | TGI (SK-MEL-5 melanoma): > 100 µM | GI50 (SK-OV-3 ovarian): > 100 µM | TGI (SK-OV-3 ovarian): > 100 µM | GI50 (SN12C renal): > 100 µM | TGI (SN12C renal): > 100 µM | GI50 (SNB-19 CNS): > 100 µM | TGI (SNB-19 CNS): > 100 µM | GI50 (SNB-75 CNS): > 100 µM | TGI (SNB-75 CNS): > 100 µM | GI50 (SR leukemia): 18.9 µM | TGI (SR leukemia): 50.3 µM | GI50 (SW-620 colon): > 100 µM | TGI (SW-620 colon): > 100 µM | GI50 (T-47D breast): > 100 µM | TGI (T-47D breast): > 100 µM | GI50 (U251 glioblastoma): > 100 µM | TGI (U251 glioblastoma): > 100 µM | GI50 (UACC-62 melanoma): > 100 µM | TGI (UACC-62 melanoma): > 100 µM | GI50 (UO-31 renal): > 100 µM | TGI (UO-31 renal): > 100 µM

CC(C)N(CCCNC(=O)Nc1ccc(C(C)(C)C)cc1)C[C@H]1O[C@@H](n2ccc3c(N)ncnc32)[C@H](O)[C@@H]1O
GI50 ([…]-0 renal): > 100 µM | TGI (786-0 renal): > 100 µM | GI50 (A549 NSCLC): > 100 µM | TGI (A549 NSCLC): > 100 µM | GI50 (ACHN renal): > 100 µM | TGI (ACHN renal): > 100 µM | GI50 (BT-549 breast): > 100 µM | TGI (BT-549 breast): > 100 µM | GI50 (CAKI-1 renal): > 100 µM | TGI (CAKI-1 renal): > 100 µM | GI50 (CCRF-CEM leukemia): > 95.3 µM | TGI (CCRF-CEM leukemia): > 100 µM | GI50 (COLO 205 colon): > 100 µM | TGI (COLO 205 colon): > 100 µM | GI50 (EKVX NSCLC): > 100 µM | TGI (EKVX NSCLC): > 100 µM | GI50 (HCC-2998 colon): > 100 µM | TGI (HCC-2998 colon): > 100 µM | GI50 (HCT-15 colon): > 100 µM | TGI (HCT-15 colon): > 100 µM | GI50 (HL-60(TB) leukemia): > 92.8 µM | TGI (HL-60(TB) leukemia): > 100 µM | GI50 (HOP-62 NSCLC): > 100 µM | TGI (HOP-62 NSCLC): > 100 µM | GI50 (HS 578T breast): > 100 µM | TGI (HS 578T breast): > 100 µM | GI50 (HT29 colon): > 87.2 µM | TGI (HT29 colon): > 100 µM | GI50 (K-562 leukemia): > 100 µM | TGI (K-562 leukemia): > 100 µM | GI50 (LOX IMVI melanoma): > 89 µM | TGI (LOX IMVI melanoma): > 100 µM | GI50 (M14 melanoma): > 100 µM | TGI (M14 melanoma): > 100 µM | GI50 (MALME-3M melanoma): 61.6 µM | TGI (MALME-3M melanoma): > 100 µM | GI50 (MCF7 breast): > 100 µM | TGI (MCF7 breast): > 100 µM | GI50 (MDA-MB-435 melanoma): > 100 µM | TGI (MDA-MB-435 melanoma): > 100 µM | GI50 (MDA-MB-468 breast): 23.1 µM | TGI (MDA-MB-468 breast): > 100 µM | GI50 (MOLT-4 leukemia): 44.7 µM | TGI (MOLT-4 leukemia): > 100 µM | GI50 (NCI-H226 lung): > 100 µM | TGI (NCI-H226 lung): > 100 µM | GI50 (NCI-H23 lung): > 100 µM | TGI (NCI-H23 lung): > 100 µM | GI50 (NCI-H322M lung): > 100 µM | TGI (NCI-H322M lung): > 100 µM | GI50 (NCI-H460 NSCLC): > 100 µM | TGI (NCI-H460 NSCLC): > 100 µM | GI50 (NCI/ADR-RES ovarian): > 100 µM | TGI (NCI/ADR-RES ovarian): > 100 µM | GI50 (OVCAR-3 ovarian): > 100 µM | TGI (OVCAR-3 ovarian): > 100 µM | GI50 (OVCAR-4 ovarian): > 100 µM | TGI (OVCAR-4 ovarian): > 100 µM | GI50 (OVCAR-8 ovarian): > 100 µM | TGI (OVCAR-8 ovarian): > 100 µM | GI50 (PC-3 prostate): > 100 µM | TGI (PC-3 prostate): > 100 µM | GI50 (RXF 393 renal): > 100 µM | TGI (RXF 393 renal): > 100 µM | GI50 (SF-268 CNS): > 63.7 µM | TGI (SF-268 CNS): > 100 µM | GI50 (SF-295 CNS): > 100 µM | TGI (SF-295 CNS): > 100 µM | GI50 (SF-539 CNS): > 100 µM | TGI (SF-539 CNS): > 100 µM | GI50 (SK-MEL-2 melanoma): > 100 µM | TGI (SK-MEL-2 melanoma): > 100 µM | GI50 (SK-MEL-5 melanoma): > 100 µM | TGI (SK-MEL-5 melanoma): > 100 µM | GI50 (SK-OV-3 ovarian): > 100 µM | TGI (SK-OV-3 ovarian): > 100 µM | GI50 (SN12C renal): > 100 µM | TGI (SN12C renal): > 100 µM | GI50 (SNB-19 CNS): > 100 µM | TGI (SNB-19 CNS): > 100 µM | GI50 (SNB-75 CNS): > 100 µM | TGI (SNB-75 CNS): > 100 µM | GI50 (SR leukemia): > 100 µM | TGI (SR leukemia): > 100 µM | GI50 (SW-620 colon): > 100 µM | TGI (SW-620 colon): > 100 µM | GI50 (T-47D breast): > 96.4 µM | TGI (T-47D breast): > 100 µM | GI50 (U251 glioblastoma): > 100 µM | TGI (U251 glioblastoma): > 100 µM | GI50 (UACC-62 melanoma): > 100 µM | TGI (UACC-62 melanoma): > 100 µM | GI50 (UO-31 renal): > 100 µM | TGI (UO-31 renal): > 100 µM
